Reference: paper PMC8658022, “Towards Property Profiling: SYNTHESIS and SAR Probing of New Tetracyclic Diazaphenothiazine Analogues” (International Journal of Molecular Sciences, 2021)
In brackets after ≈: the same amount, converted by molar mass.

How the values were obtained:
[1] = experimentally determined lipophilicity (logPTLC); assay type: physicochemical; conditions: thin-layer chromatography (TLC)
Excerpt: In order to examine the lipophilic profile of the investigated compounds, the empirically determined logPTLC parameters (see Table 1) were compared with the theoretically approximated lipophilicity coefficients (clogP) using an ensemble of in silico predictors, e.g., clogP, Molinspiration, Osiris, HyperChem 7.0, Sybyl-X, MarvinSketch 15, ACD/ChemSketch 2015, Dragon 6.0, Kowwin, XlogP3, ChemDraw and ACD/Percepta programs. Subsequently, the deduced clogP parameters were cross-compared with the experimental logPTLC and inter-correlated with each other as presented in Figure 5. A good correlation was obtained (r = 0.94) for the MarvinSketch-made clogP values and the empirical logPTLC was recorded, respectively. […] A quite high inter-correlation was observed among the programs for lipophilicity specification. Obviously, some variations in clogP values resulted from different in silico algorithms (atom/fragment- or descriptor-based) implemented in the programs and/or training data employed in the training step [33].

[2] = system: A549 (human lung carcinoma); assay: WST-1 cell proliferation assay, A549; assay type: cell-based; conditions: mean ± std
Method: (§1) Compounds were evaluated for their antiproliferative activity using […] cultured cell lines: A549 (human lung carcinoma, ATCC, Manassas, VA, USA), SNB-19 (human glioblastoma, DSMZ, German Collection of Microorganisms and Cell Cultures), T-47D (human breast cancer, ATCC, Manassas, VA, USA) and NHDF (normal human dermal fibroblasts, ATCC, Manassas, VA, USA). The cultured cells were kept at 37 °C and 5% CO2. The cells were seeded (1 × 10^4 cells/well/100 μL DMEM supplemented with 10% FCS and streptomycin and penicillin) using 96-well plates (Corning). Cells were counted in a hemocytometer (Burker chamber) using a phase contrast Olympus IX50 microscope equipped with Sony SSC-DC58 AP camera and Olympus DP10 digital camera.
(§2) The antiproliferative effect of the compounds exerted on cancer and normal cells was determined using the Cell Proliferation Reagent WST-1 assay (Roche Molecular Biochemicals Mannheim, Germany). This assay is based on a colorimetric method using the enzymatic ability of viable cells to cause the bright red-colored stable tetrazolium monosodium salt [2-(4-iodophenyl)-3-(4-nitrophenyl)-5-(2,4-disulfophenyl)–2H-tetra-zolium] to transform into the dark red-colored soluble formazan. […] An increase in the amount of formazan dye formed correlated with the number of metabolically active cells in the culture. The formazan dye produced by metabolically active cells was quantified by absorbance reading at appropriate wavelengths. The examined cells were exposed to the tested compounds (1 mg/mL DMSO stock) for 72 h at various concentrations (0.1 μg/mL–100 μg/mL). The control was performed in order to eliminate the DMSO effect at the concentration used. Cell cultures were incubated with WST-1 (10 μL) for 1 h. The absorbance of the samples was measured against a background control at 450 nm using a microplate reader with a reference wavelength at 600 nm. The obtained results are expressed as the means of at least two independent experiments performed in triplicate. The antiproliferative activity of the tested compounds were compared to cisplatinum. The values of IC50 (a concentration of a compound that is required for 50% inhibition) were calculated from the dose-response relationship with respect to control.

[3] = system: SNB-19 (human glioblastoma); assay: WST-1 cell proliferation assay, SNB-19; assay type: cell-based; conditions: mean ± std
Method: as §1, §2

[4] = system: T47D (human breast cancer); assay: WST-1 cell proliferation assay, T47D; assay type: cell-based; conditions: 72 h exposure, mean ± std
Method: as §1, §2

[5] = system: NHDF (normal human dermal fibroblasts); assay: WST-1 cell proliferation assay, NHDF normal cells; assay type: cell-based; conditions: normal cell line, 72 h exposure, mean ± std
Method: as §1, §2

[6] = system: Staphylococcus aureus ATCC 29213; assay: broth dilution micro-method MIC, S. aureus ATCC 29213; assay type: cell-based; conditions: ATCC29213, 24 h, 37 °C
Method: (§3) The synthesized compounds were evaluated for in vitro antibacterial activity against representatives of multidrug-resistant bacteria and clinical isolates of methicillin-resistant Staphylococcus aureus (MRSA) 63718, SA 630, and SA 3202 that were obtained from the National Institute of Public Health (Prague, Czech Republic). S. aureus ATCC 29213 was used as a reference and quality control strain. Ampicillin (Sigma, St. Louis, MO, USA) was employed as the standard. Prior to testing, each strain was passaged onto nutrient agar (Oxoid, Basingstoke, UK) with 5% of bovine blood, and bacterial inocula were prepared by suspending a small portion of a bacterial colony in sterile phosphate-buffered saline (pH 7.2–7.3). The cell density was adjusted to 0.5 McFarland units using a densitometer (Densi-La-Meter, LIAP, Riga, Latvia). This inoculum was diluted to reach the final concentration of bacterial cells 5 × 10^5 CFU/mL in the wells. […] The final concentrations of the evaluated compounds ranged from 256 to 0.008 μg/mL. The broth dilution micro-method, modified according to the NCCLS (National Committee for Clinical Laboratory Standards) guidelines in Mueller–Hinton (MH) broth, was used to determine the minimum inhibitory concentration (MIC). Drug-free controls, sterility controls, and controls consisting of MH broth and DMSO alone were included. The determination of results was performed visually after 24 h of static incubation in the darkness at 37 °C in an aerobic atmosphere. Each experiment was repeated at least three times.

[7] = system: methicillin-resistant S. aureus 63718; assay: broth dilution micro-method MIC, MRSA 63718; assay type: cell-based; conditions: Staphylococcus aureus, clinical isolate, 24 h, 37 °C
Method: as §3

[8] = system: methicillin-resistant S. aureus SA 630; assay: broth dilution micro-method MIC, MRSA SA 630; assay type: cell-based; conditions: Staphylococcus aureus, clinical isolate, 24 h, 37 °C
Method: as §3

[9] = system: methicillin-resistant S. aureus SA 3202; assay: broth dilution micro-method MIC, MRSA SA 3202; assay type: cell-based; conditions: Staphylococcus aureus, clinical isolate, 24 h, 37 °C
Method: as §3

MRSA isolates = assay: broth dilution micro-method MIC, MRSA isolates (pooled statement); assay type: cell-based; conditions: Staphylococcus aureus; range over three MRSA isolates and both compounds; read-out: MICs against MRSA isolates
Method: as §3, with “The determination of results was performed visually after 24 h of static incubation in the darkness at 37 °C in an aerobic atmosphere. Each experiment was repeated at least three times.” left out

[10] = Homo sapiens, A549, 72 h exposure
[11] = Homo sapiens, SNB-19, 72 h exposure

chromatographic logP [1] | IC50 [2, 10] | IC50 [3, 11] | IC50 ([4]; Homo sapiens, T47D) | MIC [6] | MIC [7] | MIC [8] | MIC [9] | MIC (MRSA isolates) | Compound | IC50 ([5]; Homo sapiens, NHDF) | IC50 ([2]; 72 h exposure) | IC50 ([3]; 72 h exposure) | IC50 [4] | IC50 [5]
3.53 | 70.3 ± 9.8 µM | 132 ± 11.6 µM | 46.2 ± 7.1 µM | 212 µM | 212 µM | 106 µM | 212 µM |  | C[n+]1cc2c(c3ccccc31)Nc1cccnc1S2 [3a, 5-methyl-12H-quino[3,4-b]pyrido[5,6-e][1,4]thiazinium chloride] | 21.1 ± 1.5 µM |  |  |  | 
4.8 | 23.8 ± 1.7 µM | 4.1 ± 0.3 µM | 5.2 ± 0.4 µM | 337 µM | 337 µM | 337 µM | 337 µM |  | C[n+]1cc2c(c3ccccc31)Nc1ccc(Br)nc1S2 [3b, 9-bromo-5-methyl-12H-quino[3,4-b]pyrido[5,6-e][1,4]thiazinium chloride] | 0.8 ± 0.05 µM |  |  |  | 
4.62 | 2 ± 0.3 µM | 1.3 ± 0.1 µM | 2.3 ± 0.3 µM | 381 µM | 381 µM | 381 µM | 381 µM |  | C[n+]1cc2c(c3ccccc31)Nc1ccc(Cl)nc1S2 [3d, 9-chloro-5-methyl-12H-quino[3,4-b]pyrido[5,6-e][1,4]thiazinium chloride] | 7.7 ± 0.5 µM |  |  |  | 
4.24 | 2.1 ± 0.35 µM | 0.4 ± 0.08 µM | 2.8 ± 0.35 µM | 50.2 µM | 25.1 µM | 12.5 µM | 25.1 µM | 12.5 to 42.1 µM | C[n+]1cc2c(c3ccccc31)Nc1ccc(F)nc1S2 [3e, 9-fluoro-5-methyl-12H-quino[3,4-b]pyrido[5,6-e][1,4]thiazinium chloride] | 1.1 ± 0.14 µM |  |  |  | 
5.09 | 115 ± 10.7 µM | 62.5 ± 6.6 µM | 128 ± 18.2 µM | 299 µM | 299 µM | 299 µM | 299 µM |  | C[n+]1cc2c(c3ccccc31)Nc1ccc(I)nc1S2 [3f, 9-iodo-5-methyl-12H-quino[3,4-b]pyrido[5,6-e][1,4]thiazinium chloride] | 97.4 ± 6.2 µM |  |  |  | 
4.2 | 1.7 ± 0.1 µM | 6.1 ± 0.4 µM | 8.1 ± 1 µM | 193 µM | 193 µM | 96 µM | 193 µM |  | COc1ccc2c(n1)Sc1c[n+](C)c3ccccc3c1N2 [3j, 9-methoxy-5-methyl-12H-quino[3,4-b]pyrido[5,6-e][1,4]thiazinium chloride] | 2 ± 0.3 µM |  |  |  | 

More lines, now with the values behind:

Compound | chromatographic logP [1] | IC50 [2, 10] | IC50 [3, 11] | IC50 ([4]; Homo sapiens, T47D) | MIC [6] | MIC [7] | MIC [8] | MIC [9] | MIC (MRSA isolates) | IC50 ([5]; Homo sapiens, NHDF) | IC50 ([2]; 72 h exposure) | IC50 ([3]; 72 h exposure) | IC50 [4] | IC50 [5]
C[n+]1cc2c(c3ccccc31)Nc1cc(Br)cnc1S2 [3c, 10-bromo-5-methyl-12H-quino[3,4-b]pyrido[5,6-e][1,4]thiazinium chloride] | 4.57 | 20.6 ± 1.2 µM | 3.4 ± 0.2 µM | 12.2 ± 1.7 µM | 42.1 µM | 42.1 µM | 21.1 µM | 42.1 µM | 12.5 to 42.1 µM | 11 ± 1.4 µM |  |  |  | 
Cc1cc(Cl)nc2c1Nc1c(c[n+](C)c3ccccc13)S2 [3g, 9-chloro-5,11-dimethyl-12H-quino[3,4-b]pyrido[5,6-e][1,4]thiazinium chloride] | 5.66 | 20 ± 1.6 µM | 3.5 ± 0.2 µM | 26.7 ± 1.6 µM | > 731 µM | > 731 µM | > 731 µM | > 731 µM |  | 3.8 ± 0.3 µM |  |  |  | 
Cc1cc(F)nc2c1Nc1c(c[n+](C)c3ccccc13)S2 [3h, 9-fluoro-5,11-dimethyl-12H-quino[3,4-b]pyrido[5,6-e][1,4]thiazinium chloride] | 5.72 | 15.4 ± 1 µM | 126 ± 14.8 µM | 47.7 ± 2.8 µM | 383 µM | 383 µM | 383 µM | 383 µM |  | 28.5 ± 4 µM |  |  |  | 
Cc1ccnc2c1Nc1c(c[n+](C)c3ccccc13)S2 [3i, 5,11-dimethyl-12H-quino[3,4-b]pyrido[5,6-e][1,4]thiazinium chloride] | 4.17 | 69.3 ± 5.3 µM | 22.1 ± 1.5 µM | 18.9 ± 1.4 µM | 203 µM | 203 µM | 101 µM | 203 µM |  | 0.4 ± 0.07 µM |  |  |  | 
C[n+]1cc2c(c3ccccc31)Nc1cnccc1S2 [4a, 5-methyl-5H-qujino[3,4-b]pyrido[3,4-e][1,4]thiazinium chloride] | 2.93 | 30.1 ± 3.4 µM | 18.7 ± 1.2 µM | 36.8 ± 2.1 µM | 424 µM | 424 µM | 424 µM | 424 µM |  | 7.5 ± 0.2 µM |  |  |  | 
CC1(C)S[C@@H]2[C@H](NC(=O)[C@H](N)c3ccccc3)C(=O)N2[C@H]1C(=O)O [AMP, Ampicillin, reference compound] |  |  |  |  | 5.72 µM (≈ 2 µg/mL) | 45.8 µM (≈ 16 µg/mL) | 45.8 µM (≈ 16 µg/mL) | 45.8 µM (≈ 16 µg/mL) |  |  |  |  |  | 
N.N.[Cl][Pt][Cl] [cisplatinum, reference compound] |  |  |  |  |  |  |  |  |  |  | 3 ± 0.2 µM | 16.7 ± 1.3 µM | 9 ± 0.7 µM | 29.9 ± 3.3 µM
